Our source for the IC50 and inhibition values is patent US7576222B2, “Alkynyl-containing tryptophan derivative inhibitors of TACE/matrix metalloproteinase” (priority 2004, dated 2009).

Read-outs that look alike come from different tables or passages of the source.

Test [1] concerns the target T1, catalytic domain of the recombinant TACE protein (Homo sapiens, UniProt P78536).
T1 construct: The catalytic domain of the recombinant TACE protein was expressed and purified; made in house
Nature of the test: TACE FRET assay using TACE cat. In kind it is biochemical. Conditions: for inhibition at 1 µM: read-out: TACE Inhibition (%). An outline of the steps: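 Initial fluorescence rate of Abz-[sequence]-Dpa pro-TNF-α peptide cleavage (substrate from 2 mM stock) read after adding substrate to enzyme (1 ug/ml) preincubated 10 min, room temperature, with inhibitor.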

For test [2], the system named is TNF-α Secretion in Raw Cells (Raw 264.7 cells). Nature of the test: Cell-based assay for inhibition of TNF-α secretion in Raw cells. The settings on record: Mus musculus, RAW264.7, 4 h, read-out: TNF-α Secretion in Raw Cells IC50. How it is done: Cell-Based Assay for Inhibition of TNF-A Secretion in Raw Cells
The basic measurement of the assay is the percentage of inhibition of TNF-α secretion and the IC50 determination by a fitting with the model-39 of LSW data analysis tool.
Raw 264.7 cells (ATCC Cat No. TIB-71) are maintained in DMEM medium containing 10% of serum, P/S, and Glutamine. […] For testing compounds, cells are cultured to confluence and are seeded the day before the experiment in 24 well culture dishes at 0.5 to 1 million/ml/well. On the next morning, the medium from the overnight culture is replaced with the fresh growth medium. The compounds are added at various concentrations at the 0.2% of final DMSO concentrations (10 μl of a 20% DMSO solution containing testing compounds is added to each well). The cells are pre-incubated with compounds for 1 hour. LPS (Sigma, L2262) is added to cells at a final concentration of 100 ng/ml (10 μl of a […] LPS solution freshly diluted from a 1 mg/ml LPS stock solution in PBS is added to each well) and cells are further incubated for 4 hours at 37° C. One milliliter (1 ml) of the supernatant was collected, cells are spun down and the supernatants are frozen at −80° C. until use.
The TNF-α and other proinflammatory cytokines were detected by ELISA assay according to the manufacturer's instruction (Biosource International, Inc., Camarillo, Calif.) (For IL-1b measurement in Raw cells, one round of freeze and thaw of the cells was required.)

The target of test [3] is T2, recombinant human catalytic domain of MMP-13 (Homo sapiens, UniProt P45452).
T2 construct: catalytic domain of MMP-13 (165 amino acids, residues 104-268, 19 kDa)
Kind of test: biochemical. The source says: (§1) A continuous assay was used in which the substrate is a synthetic peptide containing a fluorescent group (7-methoxycoumarin; Mca) that is quenched by energy transfer to a 2,4-dinitrophenyl group. See Knight, C. G. et al., FEBS Lett. (1992) 296: 263-266, incorporated herein by reference in its entirety. […] See Zhang, Y et al., Journal of Pharmacology and Experimental Therapeutics (JPET) (2004) 309:348-355, incorporated by reference in its entirety. The substrate used was Mca-PQGL-(3-[2,4-dinitrophenyl]-L-2,3-diaminopropionyl)-AR-OH (denoted as Wammp-5, custom synthesized by AnaSpec, Inc., San Jose, Calif.). The assay buffer consisted of 50 mM Hepes (pH 7.4), 100 mM NaCl, 5 mM CaCl2, and 0.005% Brij-35. Each well of black polystyrene 96-well plates contained a 200 μl reaction mixture consisting of assay buffer, purified MMP (final concentration of 25 ng/ml, prepared by diluting with the assay buffer), and varied concentrations of inhibitor (prepared by serially diluting a given inhibitor in DMSO in 96-well polypropylene plate). The plates were then incubated at 30° C. for 15 minutes. The enzymatic reactions were initiated by adding the substrate to a final concentration of 20 μM, and mixing 10 times with a pipette. The final DMSO concentration in the assay was 6.0%. The initial rate of the cleavage reaction was determined at 30° C. with a fluorescence plate reader (excitation filter of 330 nm and emission filter of 395 nm) immediately after substrate addition.
(§2) Plots of the inhibitor concentration versus the percent inhibition were fit to the following equation: y=(a−d)/[1+(x/c)^b]+d, a general sigmoidal curve with Hill slope, a to d. x is the inhibitor concentration under test. “y” is the percent inhibition. “a” is the limiting response as x approaches zero. As x increases without bound, y tends toward its limit d. “c” is the inflection point (IC50) for the curve. That is, y is halfway between the lower and upper asymptotes when x=c. “b” is the slope factor or Hill coefficient.
In-Vitro Fluorescence Assay of MMP-13 Activity
See Zhang, Y et al., Journal of Pharmacology and Experimental Therapeutics (JPET) (2004) 309:348-355, incorporated by reference in its entirety.

For another test, the target named is T3, recombinant human MMP-2 (Homo sapiens, UniProt P08253).
T3 construct: purchased Oncogene Research Products (Calbiochem) PF023
T3 sequence (P08253 110-660): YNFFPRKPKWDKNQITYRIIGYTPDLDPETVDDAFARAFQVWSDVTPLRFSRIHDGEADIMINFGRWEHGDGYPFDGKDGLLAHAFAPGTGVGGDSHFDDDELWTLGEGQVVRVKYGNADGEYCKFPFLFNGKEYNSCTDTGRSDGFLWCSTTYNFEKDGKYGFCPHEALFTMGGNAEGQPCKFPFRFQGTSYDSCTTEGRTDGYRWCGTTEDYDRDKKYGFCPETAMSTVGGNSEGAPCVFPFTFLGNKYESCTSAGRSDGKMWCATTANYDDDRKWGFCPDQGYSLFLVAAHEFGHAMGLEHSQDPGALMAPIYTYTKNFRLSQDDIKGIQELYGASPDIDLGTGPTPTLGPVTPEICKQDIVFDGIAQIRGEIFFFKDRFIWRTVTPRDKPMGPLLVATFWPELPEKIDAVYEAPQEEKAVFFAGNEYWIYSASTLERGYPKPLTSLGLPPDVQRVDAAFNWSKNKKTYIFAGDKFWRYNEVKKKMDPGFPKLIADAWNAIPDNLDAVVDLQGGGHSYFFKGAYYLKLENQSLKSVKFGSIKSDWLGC
Kind of test: In-vitro fluorescence (FRET) assay of MMP-2 activity. In kind it is biochemical.
Description: as §1, §2
In-Vitro Fluorescence Assay of MMP-2 Activity

Where [4] appears, read: TACE FRET assay, catalytic domain of recombinant TACE, read-out: TACE IC50.

T1 sequence (P78536 223-474 limits assumed): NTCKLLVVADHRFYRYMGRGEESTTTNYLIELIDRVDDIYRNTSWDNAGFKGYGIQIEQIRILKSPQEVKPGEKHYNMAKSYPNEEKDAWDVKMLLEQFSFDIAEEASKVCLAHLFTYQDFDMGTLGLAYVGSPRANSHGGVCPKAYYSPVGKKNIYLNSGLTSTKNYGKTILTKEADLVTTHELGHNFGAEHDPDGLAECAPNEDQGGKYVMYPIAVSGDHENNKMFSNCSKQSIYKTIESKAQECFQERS

The term IC50 denotes the concentration needed to halve the response being measured. `CC#CCOc1ccc(S(=O)(=O)N[C@H](Cc2cn(Cc3ccccc3-c3ccccc3)c3ccccc23)C(=O)O)cc1` [Example 27, 1-(1,1′-biphenyl-2-ylmethyl)-N-{[4-(but-2-ynyloxy)phenyl]sulfonyl}-D-tryptophan]: the concentration for half-maximal inhibition (IC50) in test [1] (setting [4]) is 970 nM; in test [2], above 60 µM.

`CC#CCOc1ccc(S(=O)(=O)NC(Cc2c[nH]c3ccc(C)cc23)C(=O)O)cc1` (racemic) [Example 6, N-{[4-(but-2-ynyloxy)phenyl]sulfonyl}-5-methyltryptophan]: the results for the 50% inhibitory concentration (IC50) (in test [3]; in test [1]; at recombinant human MMP-2) were 6.87 µM, 280 nM and 1.16 µM, respectively.

`CC#CCOc1ccc(S(=O)(=O)N[C@H](Cc2cn(CCCCOc3ccccc3)c3ccccc23)C(=O)O)cc1` [Example 24, N-{[4-(but-2-ynyloxy)phenyl]sulfonyl}-1-(4-phenoxybutyl)-D-tryptophan]: the IC50 was 1250 nM in test [1] (setting [4]) and above 60 µM in test [2].

For `CC#CCOc1ccc(S(=O)(=O)N[C@@H](Cc2c(C)n(Cc3ccc(F)cc3)c3ccc(OC)cc23)C(=O)O)cc1` [Example 199, N-{[4-(but-2-ynyloxy)phenyl]sulfonyl}-1-(4-fluorobenzyl)-5-methoxy-2-methyltryptophan], the IC50 was 320 nM in test [1] and above 60 µM in test [2].

For the molecule `CC#CCOc1ccc(S(=O)(=O)N[C@H](Cc2cn(Cc3ccc(F)cc3)c3ccccc23)C(=O)O)cc1` [Example 28, N-{[4-(but-2-ynyloxy)phenyl]sulfonyl}-1-(4-fluorobenzyl)-D-tryptophan], the values for the 50% inhibitory concentration (IC50) (in test [3]; in test [1] (setting [4]); at recombinant human MMP-2) were 17 µM, 1900 nM and 3.97 µM, respectively.

`CC#CCOc1ccc(S(=O)(=O)NC(Cc2c[nH]c3ccc(OCc4ccccc4)cc23)C(=O)O)cc1` (racemic) [Example 20, 5-(benzyloxy)-N-{[4-(but-2-ynyloxy)phenyl]sulfonyl}tryptophan]: the figures for the IC50 (in test [3]; in test [1]; on recombinant human MMP-2) were 15.3 µM, 750 nM and 7.85 µM, respectively.

On to `CC#CCOc1ccc(S(=O)(=O)N[C@@H](Cc2cn(Cc3cccc(C(F)(F)F)c3)c3ccc(OC)cc23)C(=O)O)cc1` [Example 56, N-{[4-(but-2-ynyloxy)phenyl]sulfonyl}-5-methoxy-1-[3-(trifluoromethyl)benzyl]tryptophan], for which the IC50 in test [1] is 2070 nM.

On to `CC#CCOc1ccc(S(=O)(=O)N[C@@H](Cc2cn(CCCCC)c3ccc(OC)cc23)C(=O)O)cc1` [Example 68, N-{[4-(but-2-ynyloxy)phenyl]sulfonyl}-5-methoxy-1-pentyltryptophan], for which the IC50 in test [1] was determined as 1320 nM.

One may read the inhibition as the relative decrease from the control value, in per cent. On to `CC#CCOc1ccc(S(=O)(=O)N[C@@H](Cc2c(C)n(Cc3cc(F)cc(F)c3)c3ccc(OC)cc23)C(=O)O)cc1` [Example 200, N-{[4-(but-2-ynyloxy)phenyl]sulfonyl}-1-(3,5-difluorobenzyl)-5-methoxy-2-methyltryptophan], for which, in test [1], the inhibition at 1 µM came to 80.5%.

With `CC#CCOc1ccc(S(=O)(=O)N[C@@H](Cc2c(C)n(Cc3ccc(F)cc3)c3ccc(Cl)cc23)C(=O)O)cc1` [Example 95, N-{[4-(but-2-ynyloxy)phenyl]sulfonyl}-5-chloro-1-(4-fluorobenzyl)-2-methyltryptophan], the inhibition at 1 µM in test [1] was determined as 63.6%.

For the molecule `CC#CCOc1ccc(S(=O)(=O)N[C@@H](Cc2c(C)n(Cc3ccccc3C)c3ccccc23)C(=O)O)cc1` [Example 145, N-{[4-(but-2-ynyloxy)phenyl]sulfonyl}-2-methyl-1-(2-methylbenzyl)tryptophan], the inhibition at 1 µM in test [1] is 49.5%.

In the case of `CC#CCOc1ccc(S(=O)(=O)N[C@@H](Cc2cn(Cc3ccc(OC)cc3)c3ccc(C#N)cc23)C(=O)O)cc1` [Example 139, N-{[4-(but-2-ynyloxy)phenyl]sulfonyl}-5-cyano-1-(4-methoxybenzyl)tryptophan], in test [1], the inhibition at 1 µM was found to be 25.1%.

`CC#CCOc1ccc(S(=O)(=O)N[C@@H](Cc2cn(Cc3cc(F)cc(F)c3)c3ccc(OC)cc23)C(=O)O)cc1` [Example 61, N-{[4-(but-2-ynyloxy)phenyl]sulfonyl}-1-(3,5-difluorobenzyl)-5-methoxytryptophan]: the inhibition at 1 µM in test [1] was 39.5%.

`CC#CCOc1ccc(S(=O)(=O)N[C@@H](Cc2cn(Cc3ccccc3F)c3ccc(C(=O)O)cc23)C(=O)O)cc1` [Example 115, N-{[4-(but-2-ynyloxy)phenyl]sulfonyl}-5-carboxy-1-(2-fluorobenzyl)tryptophan]: the inhibition at 1 µM in test [1] is 4.29%.

As for `CC#CCOc1ccc(S(=O)(=O)N[C@@H](Cc2cn(Cc3ccc(OC(F)(F)F)cc3)c3ccc(Cl)cc23)C(=O)O)cc1` [Example 78, N-{[4-(but-2-ynyloxy)phenyl]sulfonyl}-5-chloro-1-[4-(trifluoromethoxy)benzyl]tryptophan], in test [1], the inhibition at 1 µM came out at 7.39%.

As to `CC#CCOc1ccc(S(=O)(=O)N[C@@H](Cc2cn(Cc3ccc(F)cc3)c3ccc(OC)cc23)C(=O)O)cc1` [Example 60, N-{[4-(but-2-ynyloxy)phenyl]sulfonyl}-1-(4-fluorobenzyl)-5-methoxytryptophan], in test [1], the inhibition at 1 µM came out at 43.5%.

As to `CC#CCOc1ccc(S(=O)(=O)N[C@@H](Cc2cn(Cc3cccc(F)c3)c3ccc(OC)cc23)C(=O)O)cc1` [Example 59, N-{[4-(but-2-ynyloxy)phenyl]sulfonyl}-1-(3-fluorobenzyl)-5-methoxytryptophan], the inhibition at 1 µM in test [1] came to 44.4%.

For `CC#CCOc1ccc(S(=O)(=O)N[C@@H](Cc2cn(Cc3cc(F)cc(F)c3)c3ccc(C(=O)O)cc23)C(=O)O)cc1` [Example 118, N-{[4-(but-2-ynyloxy)phenyl]sulfonyl}-5-carboxy-1-(3,5-difluorobenzyl)tryptophan], in test [1], the inhibition at 1 µM turned out to be 5.98%.

Take `CC#CCOc1ccc(S(=O)(=O)N[C@@H](Cc2c(C)n(Cc3ccc(C)cc3)c3ccc(Cl)cc23)C(=O)O)cc1` [Example 92, N-{[4-(but-2-ynyloxy)phenyl]sulfonyl}-5-chloro-2-methyl-1-(4-methylbenzyl)tryptophan]: the inhibition at 1 µM in test [1] was 64%.

Take `CC#CCOc1ccc(S(=O)(=O)N[C@@H](Cc2cn(Cc3ccccc3C(F)(F)F)c3ccc(OC)cc23)C(=O)O)cc1` [Example 55, N-{[4-(but-2-ynyloxy)phenyl]sulfonyl}-5-methoxy-1-[2-(trifluoromethyl)benzyl]tryptophan]: the inhibition at 1 µM in test [1] turned out to be 31.3%.

Regarding `CC#CCOc1ccc(S(=O)(=O)N[C@@H](Cc2cn(Cc3ccc(C(C)C)cc3)c3ccc(Cl)cc23)C(=O)O)cc1` [Example 82, N-{[4-(but-2-ynyloxy)phenyl]sulfonyl}-5-chloro-1-(4-isopropylbenzyl)tryptophan], the inhibition at 1 µM in test [1] was determined as 5.26%.
